# System: P12-Ichikawa
# Test: cell viability relative to DMSO control; higher = less cytotoxic
# Details: 48 h
# In short: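 In 1536-well plates, 5 μl of leukemia cells were seeded per well: 500 cells/well for NOMO1 or SEM and 1000 cells/well for P12-Ichikawa. Each line had first been adapted for at least four passages in each medium. Library compounds in DMSO were pin-dosed at 11 threefold concentrations between 47 μM and 0.79 nM, and CellTiter-Glo One luminescence was read after 48 h at 37°C. Viability is a per-plate percentage relative to DMSO wells, with cell-free wells as background.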
# [1] = HPLM + 10% dialyzed FBS, 0.000781 µM
# [2] = HPLM + 10% dialyzed FBS, 0.00234 µM
# [3] = HPLM + 10% dialyzed FBS, 0.00702 µM
# [4] = HPLM + 10% dialyzed FBS, 0.0211 µM
# [5] = HPLM + 10% dialyzed FBS, 0.0632 µM
# [6] = HPLM + 10% dialyzed FBS, 0.19 µM
# [7] = HPLM + 10% dialyzed FBS, 0.569 µM
# [8] = HPLM + 10% dialyzed FBS, 1.71 µM
# [9] = HPLM + 10% dialyzed FBS, 5.12 µM
# [10] = HPLM + 10% dialyzed FBS, 15.4 µM
# [11] = HPLM + 10% dialyzed FBS, 46.1 µM
# [12] = RPMI 5 mM glucose + 10% FBS, 0.000781 µM
# [13] = RPMI 5 mM glucose + 10% FBS, 0.00234 µM
# [14] = RPMI 5 mM glucose + 10% FBS, 0.00702 µM
# [15] = RPMI 5 mM glucose + 10% FBS, 0.0211 µM
# [16] = RPMI 5 mM glucose + 10% FBS, 0.0632 µM
# [17] = RPMI 5 mM glucose + 10% FBS, 0.19 µM
# [18] = RPMI 5 mM glucose + 10% FBS, 0.569 µM
# [19] = RPMI 5 mM glucose + 10% FBS, 1.71 µM
# [20] = RPMI 5 mM glucose + 10% FBS, 5.12 µM
# [21] = RPMI 5 mM glucose + 10% FBS, 15.4 µM
# [22] = RPMI 5 mM glucose + 10% FBS, 46.1 µM
# [23] = RPMI 5 mM glucose + 10% dialyzed FBS, 0.000781 µM
# [24] = RPMI 5 mM glucose + 10% dialyzed FBS, 0.00234 µM
# [25] = RPMI 5 mM glucose + 10% dialyzed FBS, 0.00702 µM
# [26] = RPMI 5 mM glucose + 10% dialyzed FBS, 0.0211 µM
# [27] = RPMI 5 mM glucose + 10% dialyzed FBS, 0.0632 µM
# [28] = RPMI 5 mM glucose + 10% dialyzed FBS, 0.19 µM
# [29] = RPMI 5 mM glucose + 10% dialyzed FBS, 0.569 µM
# [30] = RPMI 5 mM glucose + 10% dialyzed FBS, 1.71 µM
# [31] = RPMI 5 mM glucose + 10% dialyzed FBS, 5.12 µM
# [32] = RPMI 5 mM glucose + 10% dialyzed FBS, 15.4 µM
# [33] = RPMI 5 mM glucose + 10% dialyzed FBS, 46.1 µM
Structure (SMILES),cell viability [1],cell viability [2],cell viability [3],cell viability [4],cell viability [5],cell viability [6],cell viability [7],cell viability [8],cell viability [9],cell viability [10],cell viability [11],cell viability [12],cell viability [13],cell viability [14],cell viability [15],cell viability [16],cell viability [17],cell viability [18],cell viability [19],cell viability [20],cell viability [21],cell viability [22],cell viability [23],cell viability [24],cell viability [25],cell viability [26],cell viability [27],cell viability [28],cell viability [29],cell viability [30],cell viability [31],cell viability [32],cell viability [33]
NC(=O)N1CCC(CC(=O)N2CCC([C@H]3c4ncc(Br)cc4CCc4cc(Cl)cc(Br)c43)CC2)CC1,107%,116%,114%,114%,114%,108%,96.9%,95.2%,78.6%,71.9%,52.9%,107%,104%,125%,121%,117%,106%,87.6%,85.9%,75.4%,62.9%,42.5%,108%,108%,118%,112%,109%,110%,94.6%,90%,78.9%,69.7%,42.2%
CC(=O)N(O)CCCCCNC(=O)CCC(=O)N(O)CCCCCNC(=O)CCC(=O)N(O)CCCCCN.C[S+](=O)([O-])O,93.5%,76.5%,40.7%,10.3%,11%,11.2%,10.8%,9.88%,9.31%,9.06%,9.61%,98.4%,110%,99%,99%,54.9%,13.4%,13.2%,11.6%,16.4%,11.4%,12.3%,97.8%,108%,114%,99.2%,79.9%,18.4%,20.7%,16.7%,15.2%,16.1%,22%
CNC(=O)c1nn(C)c2c1C(C)(C)Cc1cnc(Nc3ccc(N4CCN(C)CC4)cc3)nc1-2,106%,107%,112%,105%,108%,111%,108%,83.7%,76%,36.7%,35.6%,113%,113%,119%,123%,117%,120%,109%,79%,65.4%,44.8%,26.4%,107%,119%,123%,123%,110%,115%,95.9%,77.1%,61.9%,36.1%,35.3%
O=c1oc2cc(O)ccc2s1,114%,115%,111%,115%,116%,117%,115%,110%,108%,106%,104%,115%,131%,95.8%,116%,117%,116%,117%,107%,108%,107%,96.8%,104%,126%,109%,112%,111%,116%,114%,104%,100%,103%,85.9%
COc1cc2cc(c1Cl)N(C)C(=O)C[C@H](OC(=O)C(C)C)[C@]1(C)O[C@@H]1[C@H](C)[C@@H]1C[C@@](O)(NC(=O)O1)[C@H](OC)/C=C/C=C(\C)C2,8.03%,10.4%,10%,9.14%,10.7%,8.31%,8.37%,6.69%,6.57%,5.07%,2.08%,9.26%,12.1%,11.2%,11.8%,11%,9.9%,8.75%,8.41%,6.23%,5.36%,2%,17.5%,18.1%,16.5%,14.6%,14.3%,12.9%,12.2%,10.2%,8.98%,8.07%,2.84%
CC(C)C[C@H](CC(=O)O)C(=O)N[C@@H](Cc1c[nH]c2ccccc12)C(=O)N[C@@H](C)c1ccccc1,95.1%,102%,108%,108%,112%,111%,83.6%,107%,73.4%,42.1%,22.4%,89%,96%,111%,101%,94.2%,106%,83.7%,106%,72.6%,53.4%,32.9%,103%,111%,101%,119%,107%,108%,103%,107%,74.8%,67.8%,28.2%
CCC(=O)N1CCN(CC1)C2=C(C=C(C=C2)N3C(=O)\C=C/C4=C3C5=CC(=CC=C5N=C4)C6=CN=C7C=CC=CC7=C6)C(F)(F)F,89%,102%,99.2%,97.1%,82.9%,85.3%,81.8%,77.3%,73.8%,70.9%,77%,84.7%,90.8%,84%,75.5%,68%,65.3%,62.9%,61.3%,59.6%,56.5%,49.8%,86.4%,98.3%,97.6%,80.5%,77.2%,71.2%,68.4%,57.7%,60.8%,48.3%,54.4%
CCCCCN(C)CCC(O)(P(=O)([O-])O)P(=O)(O)O,88%,88.1%,87.1%,96%,95%,97.6%,99.5%,92.9%,93.4%,99.2%,92.4%,81.4%,86.5%,91.3%,95.6%,85.8%,86.6%,94%,89.7%,91.3%,92.6%,83.4%,79%,85.2%,81.1%,95.3%,88.9%,84.5%,88.9%,79.4%,86.1%,87.8%,86.9%
CC[C@H](C)C(=O)O[C@H]1C[C@@H](C)\C=C2\C=C/[C@H](C)[C@H](CC[C@@H]3C[C@@H](O)CC(=O)O3)[C@@H]12,91.8%,94.1%,93.3%,91.4%,92.1%,87.7%,97.1%,91.7%,89.3%,64.5%,46.8%,76.3%,90.1%,87.6%,89.1%,84.5%,82.3%,89.6%,84.9%,83.1%,44.1%,24%,80%,89.8%,89.5%,85.5%,94.6%,88.3%,84.4%,77.9%,77.4%,54.8%,29.7%
CC(C)(C)NCC(O)c1ccc(O)c(CO)c1 (configuration not stated),117%,115%,114%,105%,119%,121%,110%,97.8%,90.5%,86.5%,80%,101%,116%,121%,114%,111%,113%,103%,103%,84.4%,71.4%,68.3%,94.9%,108%,109%,106%,105%,109%,102%,110%,80.8%,73.3%,68.4%
C/C=C(\C)C(=O)N[C@@H](c1ccccc1)[C@@H](O)C(=O)O[C@H]1C[C@@]2(O)[C@@H](OC(=O)c3ccccc3)[C@@H]3[C@]4(OC(C)=O)CO[C@@H]4C[C@H](O)[C@@]3(C)C(=O)[C@H](OC(C)=O)C(=C1C)C2(C)C,45.3%,23.3%,25.7%,15.9%,22.2%,19%,21.4%,20.3%,19%,19%,14.2%,46.4%,20.9%,25.7%,13.8%,15.1%,17.2%,16.8%,16.6%,13%,13%,10.6%,49.5%,27.8%,32.8%,23%,23%,23.4%,30.4%,28.5%,24.6%,24.8%,21.1%
OC[C@H]1OC(O)C[C@@H](O)[C@@H]1O (some centres not stated),122%,124%,114%,118%,121%,120%,115%,119%,121%,118%,107%,119%,122%,124%,115%,134%,119%,131%,131%,120%,116%,112%,107%,125%,119%,117%,116%,116%,119%,123%,124%,122%,110%
N#CC1(c2cccc(C(=O)Nc3cc(Oc4ccc5nc(NC(=O)C6CC6)sc5n4)ccc3F)c2Cl)CC1,114%,111%,115%,115%,112%,108%,97%,72.8%,66.7%,29%,21.1%,110%,114%,110%,108%,108%,106%,81.2%,74.7%,59.3%,34.3%,13.4%,105%,113%,118%,117%,115%,115%,90.5%,69%,57.6%,38.7%,23.7%
c1coc(CNc2ncnc3nc[nH]c23)c1,,,,,,,,,,,,,,,,,,,,,,,123%,132%,116%,122%,131%,131%,130%,127%,122%,115%,105%
Clc1ccc(C(c2ccc(Cl)cc2)[n+]2ccn(CC(OCc3ccc(Cl)cc3Cl)c3ccc(Cl)cc3Cl)c2)cc1 (configuration not stated),115%,112%,109%,104%,113%,117%,110%,98.1%,102%,70.6%,47.1%,129%,113%,115%,110%,115%,115%,113%,100%,105%,70.2%,21%,,,,,,,,,,,

# Reference: the supplement of paper PMC11451515
